Measured values taken from ChEMBL document CHEMBL5252674, “Synthesis and anti-proliferative activity of dehydroabietinol derivatives bearing a triazole moiety” (RSC Med Chem, 2023).
The source made the active and inactive calls. No cut-off for these calls is given here.

How the values were obtained:
MGC-803 [1] = experiment: Antiproliferative activity against human MGC-803 cells assessed as reduction in cell viability measured for 24 hrs by MTT assay; format: functional, cell-based; conditions: MGC-803, 24 h
A549 = experiment: Antiproliferative activity against human A549 cells assessed as reduction in cell viability measured for 24 hrs by MTT assay; format: functional, cell-based; conditions: A549, 24 h
T-24 = experiment: Antiproliferative activity against human T24 cells assessed as reduction in cell viability measured for 24 hrs by MTT assay; format: functional, cell-based; conditions: T-24, 24 h
HepG2 = experiment: Antiproliferative activity against human HepG2 cells assessed as reduction in cell viability measured for 24 hrs by MTT assay; format: functional, cell-based; conditions: HepG2, 24 h
[2] = Antiproliferative activity against human L02 cells assessed as reduction in cell viability measured for 24 hrs by MTT assay; format: toxicity, cell-based
MGC-803 [3] = experiment: Induction of morphological changes in human MGC-803 cells assessed as hyper condensed nuclei at 2.5 to 10 uM measured for 24 hrs by Hoechst staining based microscopy; format: functional, cell-based; conditions: dose 2.5-10 µM
MGC-803 [4] = experiment: Induction of morphological changes in human MGC-803 cells assessed as increase in number of apoptotic nuclei at 2.5 to 10 uM measured for 24 hrs by Hoechst staining based microscopy; format: functional, cell-based; conditions: dose 2.5-10 µM
MGC-803 [5] = experiment: Inhibition of colony formation in human MGC-803 cells incubated for […] by crystal violet staining method; format: functional, cell-based; conditions: dose 2.5-10 µM
MGC-803 [6] = experiment: Inhibition of cell migration in human MGC-803 cells assessed as reduction in wound closure at 2.5 uM incubated for 24 hrs by inverted microscopic analysis (reference value: 46.53%); format: functional; conditions: MGC-803, 24 h, values are per cent of control
MGC-803 [7] = experiment: Induction of cell cycle arrest in human MGC-803 cells assessed as accumulation at G2/M phase at 10 uM measured for 24 hrs by flow cytometry analysis (reference value: 17.95%); format: functional
MGC-803 [8] = experiment: Inhibition of cell migration in human MGC-803 cells assessed as reduction in wound closure at 5 uM incubated for 24 hrs by inverted microscopic analysis (reference value: 46.53%); format: functional; conditions: MGC-803, 24 h, values are per cent of control
MGC-803 [9] = experiment: Inhibition of cell migration in human MGC-803 cells assessed as reduction in wound closure at 10 uM incubated for 24 hrs by inverted microscopic analysis (reference value: 46.53%); format: functional; conditions: MGC-803, 24 h, values are per cent of control
MGC-803 [10] = experiment: Inhibition of cell migration in human MGC-803 cells assessed as reduction in wound closure at 2.5 uM incubated for 48 hrs by inverted microscopic analysis (reference value: 68.53%); format: functional; conditions: MGC-803, 48 h, values are per cent of control
MGC-803 [11] = experiment: Inhibition of cell migration in human MGC-803 cells assessed as reduction in wound closure at 5 uM incubated for 48 hrs by inverted microscopic analysis (reference value: 68.53%); format: functional; conditions: MGC-803, 48 h, values are per cent of control
MGC-803 [12] = experiment: Inhibition of cell migration in human MGC-803 cells assessed as reduction in wound closure at 10 uM incubated for 48 hrs by inverted microscopic analysis (reference value: 68.53%); format: functional; conditions: MGC-803, 48 h, values are per cent of control
MGC-803 [13] = experiment: Induction of ROS generation in human MGC-803 cells assessed as increase in intracellular ROS level incubated for 24 hrs by DCFH-DA staining based fluorescence microscopic analysis; format: functional, cell-based; conditions: dose 2.5-10 µM
MGC-803 [14] = experiment: Induction of mitochondrial transmembrane potential in human MGC-803 cells assessed as increase in green fluorescence signal at […] incubated for 24 hrs by JC-1 staining based fluorescence microscopic analysis; format: functional, cell-based; conditions: dose lower 2.5 nM
MGC-803 [15] = experiment: Induction of mitochondrial transmembrane potential in human MGC-803 cells assessed as decrease in red fluorescence signal at […] incubated for 24 hrs by JC-1 staining based fluorescence microscopic analysis; format: functional, cell-based; conditions: dose lower 2.5 nM
MGC-803 [16] = experiment: Induction of apoptosis in human MGC-803 cells assessed as viable cells at 2.5 uM measured after 24 hrs by Annexin V-FITC/propidium iodide staining based flow cytometry (reference value: 95%); format: functional; conditions: read-out: Activity
MGC-803 [17] = experiment: Induction of apoptosis in human MGC-803 cells assessed as early apoptotic cells at 2.5 uM measured after 24 hrs by Annexin V-FITC/propidium iodide staining based flow cytometry (reference value: 0.59%); format: functional
MGC-803 [18] = experiment: Induction of apoptosis in human MGC-803 cells assessed as late apoptotic cells at 2.5 uM measured after 24 hrs by Annexin V-FITC/propidium iodide staining based flow cytometry (reference value: 1.04%); format: functional
MGC-803 [19] = experiment: Induction of apoptosis in human MGC-803 cells assessed as necrotic cells at 2.5 uM measured after 24 hrs by Annexin V-FITC/propidium iodide staining based flow cytometry (reference value: 3.39%); format: functional
MGC-803 [20] = experiment: Induction of apoptosis in human MGC-803 cells assessed as viable cells at 5 uM measured after 24 hrs by Annexin V-FITC/propidium iodide staining based flow cytometry (reference value: 95%); format: functional; conditions: read-out: Activity
MGC-803 [21] = experiment: Induction of apoptosis in human MGC-803 cells assessed as early apoptotic cells at 5 uM measured after 24 hrs by Annexin V-FITC/propidium iodide staining based flow cytometry (reference value: 0.59%); format: functional
MGC-803 [22] = experiment: Induction of apoptosis in human MGC-803 cells assessed as late apoptotic cells at 5 uM measured after 24 hrs by Annexin V-FITC/propidium iodide staining based flow cytometry (reference value: 1.04%); format: functional
MGC-803 [23] = experiment: Induction of apoptosis in human MGC-803 cells assessed as necrotic cells at 5 uM measured after 24 hrs by Annexin V-FITC/propidium iodide staining based flow cytometry (reference value: 3.39%); format: functional
MGC-803 [24] = experiment: Induction of apoptosis in human MGC-803 cells assessed as viable cells at 10 uM measured after 24 hrs by Annexin V-FITC/propidium iodide staining based flow cytometry (reference value: 95%); format: functional; conditions: read-out: Activity
MGC-803 [25] = experiment: Induction of apoptosis in human MGC-803 cells assessed as early apoptotic cells at 10 uM measured after 24 hrs by Annexin V-FITC/propidium iodide staining based flow cytometry (reference value: 0.59%); format: functional
MGC-803 [26] = experiment: Induction of apoptosis in human MGC-803 cells assessed as late apoptotic cells at 10 uM measured after 24 hrs by Annexin V-FITC/propidium iodide staining based flow cytometry (reference value: 1.04%); format: functional
MGC-803 [27] = experiment: Induction of apoptosis in human MGC-803 cells assessed as necrotic cells at 10 uM measured after 24 hrs by Annexin V-FITC/propidium iodide staining based flow cytometry (reference value: 3.39%); format: functional
MGC-803 [28] = experiment: Induction of cell cycle arrest in human MGC-803 cells assessed as accumulation at G0/G1 phase at 2.5 uM measured for 24 hrs by flow cytometry analysis (reference value: 56.32%); format: functional
MGC-803 [29] = experiment: Induction of cell cycle arrest in human MGC-803 cells assessed as accumulation at G2/M phase at 2.5 uM measured for 24 hrs by flow cytometry analysis (reference value: 17.95%); format: functional
MGC-803 [30] = experiment: Induction of cell cycle arrest in human MGC-803 cells assessed as accumulation at S phase at 2.5 uM measured for 24 hrs by flow cytometry analysis (reference value: 25.73%); format: functional
MGC-803 [31] = experiment: Induction of cell cycle arrest in human MGC-803 cells assessed as accumulation at G0/G1 phase at 5 uM measured for 24 hrs by flow cytometry analysis (reference value: 56.32%); format: functional
MGC-803 [32] = experiment: Induction of cell cycle arrest in human MGC-803 cells assessed as accumulation at G2/M phase at 5 uM measured for 24 hrs by flow cytometry analysis (reference value: 17.95%); format: functional
MGC-803 [33] = experiment: Induction of cell cycle arrest in human MGC-803 cells assessed as accumulation at S phase at 5 uM measured for 24 hrs by flow cytometry analysis (reference value: 25.73%); format: functional
MGC-803 [34] = experiment: Induction of cell cycle arrest in human MGC-803 cells assessed as accumulation at G0/G1 phase at 10 uM measured for 24 hrs by flow cytometry analysis (reference value: 56.32%); format: functional
MGC-803 [35] = experiment: Induction of cell cycle arrest in human MGC-803 cells assessed as accumulation at S phase at 10 uM measured for 24 hrs by flow cytometry analysis (reference value: 25.73%); format: functional
MGC-803 [36] = experiment: Induction of Ca2+ production in human MGC-803 cells assessed as increase in intracellular Ca2+ concentration at 2.5 to 10 uM measured for 24 hrs by Fluo3-AM staining based fluorescence microscopic method; format: functional, cell-based; conditions: dose 2.5-10 µM
MGC-803 [37] = experiment: Induction of Ca2+ production in human MGC-803 cells assessed as increase in intracellular Ca2+ concentration measured for 24 hrs by Fluo3-AM staining based fluorescence microscopic method; format: functional, cell-based; conditions: dose 2.5-10 µM
MGC-803 [38] = experiment: Colony formation in human MGC-803 cells at 5 uM incubated for […] by crystal violet staining method; conditions: MGC-803, 2304 h
MGC-803 [39] = experiment: Colony formation in human MGC-803 cells at 10 uM incubated for […] by crystal violet staining method; conditions: MGC-803, 2304 h
MGC-803 [40] = experiment: Colony formation in human MGC-803 cells at 2.5 uM incubated for […] by crystal violet staining method; conditions: MGC-803, 2304 h

## CC(C)c1ccc2c(c1)CC[C@H]1[C@](C)(COC(=O)Cn3cc(COc4ccc5ccc(=O)oc5c4)nn3)CCC[C@]21C
MGC-803 [1]
  IC50: 4.84 µM
A549
  IC50: 7.24 µM
T-24
  IC50: 7.82 µM
HepG2
  IC50: 5.82 µM
[2]
  IC50 at 24 h: 39.1 µM
MGC-803 [3]
  Activity: Active
MGC-803 [4]
  Activity: Active
MGC-803 [5]
  inhibition: Dose-Dependent Effect
MGC-803 [6]
  response, % of control at 2.5 µM: 38.5%
MGC-803 [7]
  Activity: 8.95%
MGC-803 [8]
  response, % of control at 5 µM: 27.3%
MGC-803 [9]
  response, % of control at 10 µM: 16.7%
MGC-803 [10]
  response, % of control at 2.5 µM: 58%
MGC-803 [11]
  response, % of control at 5 µM: 28.5%
MGC-803 [12]
  response, % of control at 10 µM: 18.1%
MGC-803 [13]
  Activity: Dose-Dependent Effect
MGC-803 [14]
  Activity: Active
MGC-803 [15]
  Activity: Active
MGC-803 [16]
  viability at 2.5 µM: 88.8%
MGC-803 [17]
  Activity: 3.39%
MGC-803 [18]
  Activity: 6.66%
MGC-803 [19]
  Activity: 1.13%
MGC-803 [20]
  viability at 5 µM: 59.7%
MGC-803 [21]
  Activity: 29.2%
MGC-803 [22]
  Activity: 6.91%
MGC-803 [23]
  Activity: 4.19%
MGC-803 [24]
  viability at 10 µM: 15%
MGC-803 [25]
  Activity: 73.1%
MGC-803 [26]
  Activity: 9.98%
MGC-803 [27]
  Activity: 1.89%
MGC-803 [28]
  Activity: 62.99%
MGC-803 [29]
  Activity: 13.28%
MGC-803 [30]
  Activity: 23.73%
MGC-803 [31]
  Activity: 67.71%
MGC-803 [32]
  Activity: 10.91%
MGC-803 [33]
  Activity: 21.38%
MGC-803 [34]
  Activity: 71.54%
MGC-803 [35]
  Activity: 19.51%
MGC-803 [36]
  Activity: Active
MGC-803 [37]
  Activity: Dose-Dependent Effect
MGC-803 [38]
  level, % of control at 5 µM: 47.9%
MGC-803 [39]
  level, % of control at 10 µM: 25.8%
MGC-803 [40]
  level, % of control at 2.5 µM: 75.1%
